# Biological target: mTOR/GbL/Raptor (mTORC1) (Homo sapiens, UniProt P42345)
# Experiment: mTOR/GbL/Raptor (mTORC1) ELISA assay
# Type: biochemical
# Conditions: phosphorylation of 4E-BP1; 0.2 nM mTORC1, 10 μM ATP, 50 nM NHis-tagged 4E-BP1
# Description: mTOR/GbL/Raptor (mTORC1) ELISA Assay
# The measurement of mTORC1 enzyme activity was performed in an ELISA assay format following the phosphorylation of 4E-BP1 protein. All experiments were performed in the 384-well format. Generally, 0.5 μL DMSO containing varying concentrations of the test compound was mixed with 15 μL enzyme solution. Kinase reactions were initiated with the addition of 15 μL of substrates-containing solution. The assay conditions were as follows; 0.2 nM mTORC1, 10 μM ATP and 50 nM NHis-tagged 4E-BP1 in 20 mM Hepes, pH 7.2, 1 mM DTT, 50 mM NaCl, 10 mM MnCl2, 0.02 mg/mL BSA, 0.01% CHAPS, 50 mM β-glycerophosphate. Following an incubation of 120 minutes at ambient temperature, 20 μL of the reaction volume was transferred to a Ni-Chelate-coated 384-well plate. The binding step of the 4E-BP1 protein proceeded for 60 minutes, followed by washing 4 times each with 50 μL of Tris-buffered saline solution (TBS). Anti-phospho-4E-BP1 rabbit-IgG (20 μL, 1:5000) in 5% BSA-TBST (0.2% Tween-20 in TBS) was added and further incubated for 60 minutes. Incubation with a secondary HRP-tagged anti-IgG was similarly performed after washing off the primary antibody (4 washes of 50 μL). Following the final wash step with TBST, 20 μL of SuperSignal ELISA Femto (Pierce Biotechnology) was added and the luminescence measured using an EnVision plate reader.
row,IC50,Compound
1,≤ 0.1 µM,"Cc1nc2cc(-c3ccc4c(c3)CN(c3nc(N)nc5c3CC(C)(C)CC5)CCO4)ccc2[nH]1 [Compound 29, 6,6-dimethyl-4-[7-(2-methyl-1H-benzimidazol-5-yl)-2,3-dihydro-1,4-benzoxazepin-4(5H)-yl]-5,6,7,8-tetrahydroquinazolin-2-amine]"
2,≤ 0.1 µM,"Cc1nc2cc(-c3ccc4c(c3)CN(c3nc(N)nc(C)c3C(C)C)CCO4)cnc2[nH]1 [Compound 50, 4-methyl-5-(1-methylethyl)-6-[7-(2-methyl-3H-imidazo[4,5-b]pyridin-6-yl)-2,3-dihydro-1,4-benzoxazepin-4(5H)-yl]pyrimidin-2-amine]"
3,≤ 0.1 µM,"Cc1nc(N)nc(N2CCOc3ccc(-c4cnc5[nH]c(N)nc5c4)cc3C2)c1C(C)C [Compound 46, 6-{4-[2-amino-6-methyl-5-(1-methylethyl)pyrimidin-4-yl]-2,3,4,5-tetrahydro-1,4-benzoxazepin-7-yl}-3H-imidazo[4,5-b]pyridin-2-amine]"
4,0.5 to 2.5 µM,"COc1ccc2c(N3CCOc4ccc(-c5cnc6[nH]cnc6c5)cc4C3)nc(CN(C)C)nc2c1 [Compound 49, 1-{4-[7-(3H-imidazo[4,5-b]pyridin-6-yl)-2,3-dihydro-1,4-benzoxazepin-4(5H)-yl]-7-(methyloxy)quinazolin-2-yl}-N,N-dimethylmethanamine]"
5,≤ 0.1 µM,"Cc1nc2cc(-c3ccc4c(c3)CN(c3nc(N)nc(C)c3Cc3ccc(F)cc3)CCO4)ccc2[nH]1 [Compound 39, 5-[(4-fluorophenyl)methyl]-4-methyl-6-[7-(2-methyl-1H-benzimidazol-5-yl)-2,3-dihydro-1,4-benzoxazepin-4(5H)-yl]pyrimidin-2-amine]"
6,≤ 0.1 µM,"CC(=O)OCc1nc(C)c(C(C)C)c(N2CCOc3ccc(-c4ccc5nc(C)[nH]c5c4)cc3C2)n1 [Compound 4, {4-methyl-6-[7-(2-methyl-1H-benzimidazol-5-yl)-2,3-dihydro-1,4-benzoxazepin-4(5H)-yl]-5-(1-methylethyl)pyrimidin-2-yl}methyl acetate]"
7,0.1 to 0.5 µM,"COc1ccc(-c2ccc3c(c2)CN(c2nc(CN(C)C)nc4c2CC(C)(C)CC4)CCO3)cc1C(C)=O [Compound 18, 1-[5-(4-{2-[(dimethylamino)methyl]-6,6-dimethyl-5,6,7,8-tetrahydroquinazolin-4-yl}-2,3,4,5-tetrahydro-1,4-benzoxazepin-7-yl)-2-(methyloxy)phenyl]ethanone]"
8,≤ 0.1 µM,"C=CCc1c(C)nc(CN(C)C)nc1N1CCOc2ccc(-c3ccc4nc(C)[nH]c4c3)cc2C1 [Compound 33, N,N-dimethyl-1-{4-methyl-6-[7-(2-methyl-1H-benzimidazol-6-yl)-2,3-dihydro-1,4-benzoxazepin-4(5H)-yl]-5-prop-2-en-1-ylpyrimidin-2-yl}methanamine]"
9,≤ 0.1 µM,"Cc1nc(N)nc(N2CCOc3ccc(-c4ccc5[nH]cnc5c4)cc3C2)c1Cc1ccc(F)cc1 [Compound 36, 4-[7-(1H-benzimidazol-5-yl)-2,3-dihydro-1,4-benzoxazepin-4(5H)-yl]-5-[(4-fluorophenyl)methyl]-6-methylpyrimidin-2-amine]"
10,≤ 0.1 µM,"Cc1nc(N)nc(N2CCOc3ccc(-c4cnc5[nH]cnc5c4)cc3C2)c1Cc1ccc(F)cc1 [Compound 47, 5-[(4-fluorophenyl)methyl]-4-[7-(3H-imidazo[4,5-b]pyridin-6-yl)-2,3-dihydro-1,4-benzoxazepin-4(5H)-yl]-6-methylpyrimidin-2-amine]"
11,0.5 to 2.5 µM,"COc1ccc2c(N3CCOc4ccc(-c5ccc6[nH]cnc6c5)cc4C3)nc(CN(C)C)nc2c1 [Compound 37, 1-{4-[7-(1H-benzimidazol-5-yl)-2,3-dihydro-1,4-benzoxazepin-4(5H)-yl]-7-(methyloxy)quinazolin-2-yl}-N,N-dimethylmethanamine]"
12,≤ 0.1 µM,"Cc1nc2cc(-c3ccc4c(c3)CN(c3nc(NCCN(C)C)nc(C)c3Cc3ccc(F)cc3)CCO4)ccc2[nH]1 [Compound 11, N′-{5-[(4-fluorophenyl)methyl]-4-methyl-6-[7-(2-methyl-1H-benzimidazol-5-yl)-2,3-dihydro-1,4-benzoxazepin-4(5H)-yl]pyrimidin-2-yl}-N,N-dimethylethane-1,2-diamine]"
13,≤ 0.1 µM,"COc1ccc(-c2ccc3c(c2)CN(c2nc(N)nc(C)c2C(C)C)CCO3)cc1NS(C)(=O)=O [Compound 16, N-[5-{4-[2-amino-6-methyl-5-(1-methylethyl)pyrimidin-4-yl]-2,3,4,5-tetrahydro-1,4-benzoxazepin-7-yl}-2-(methyloxy)phenyl]methanesulfonamide]"
14,≤ 0.1 µM,"Cc1nc2ncc(-c3ccc4c(c3)CN(c3nc(N)nc5c3CC(C)(C)CC5)CCO4)cc2[nH]1 [Compound 44, 6,6-dimethyl-4-[7-(2-methyl-1H-imidazo[4,5-b]pyridin-6-yl)-2,3-dihydro-1,4-benzoxazepin-4(5H)-yl]-5,6,7,8-tetrahydroquinazolin-2-amine]"
15,≤ 0.1 µM,"Cc1nc2ccc(-c3cc(F)c4c(c3)CN(c3nc(N)nc(C)c3C(C)C)CCO4)cc2[nH]1 [Compound 51, 4-[9-fluoro-7-(2-methyl-1H-benzimidazol-6-yl)-2,3-dihydro-1,4-benzoxazepin-4(5H)-yl]-6-methyl-5-(1-methylethyl)pyrimidin-2-amine]"
16,≤ 0.1 µM,"Cc1nc2cc(-c3ccc4c(c3)CN(c3nc(N)nc(C)c3Cc3ccc(F)cc3)CCO4)cnc2[nH]1 [Compound 48, 5-[(4-fluorophenyl)methyl]-4-methyl-6-[7-(2-methyl-3H-imidazo[4,5-b]pyridin-6-yl)-2,3-dihydro-1,4-benzoxazepin-4(5H)-yl]pyrimidin-2-amine]"
17,0.1 to 0.5 µM,"COCCOc1cc(-c2ccc3c(c2)CN(c2nc(CN(C)C)nc4c2CC(C)(C)CC4)CCO3)ccc1OC [Compound 7, 1-(6,6-dimethyl-4-{7-[4-(methyloxy)-3-{[2-(methyloxy)ethyl]oxy}phenyl]-2,3-dihydro-1,4-benzoxazepin-4(5H)-yl}-5,6,7,8-tetrahydroquinazolin-2-yl)-N,N-dimethylmethanamine]"
18,≤ 0.1 µM,"Cc1nc2ccc(-c3ccc4c(c3)CN(c3nc(CO)nc(C)c3C(C)C)CCO4)cc2[nH]1 [Compound 5, {4-methyl-6-[7-(2-methyl-1H-benzimidazol-5-yl)-2,3-dihydro-1,4-benzoxazepin-4(5H)-yl]-5-(1-methylethyl)pyrimidin-2-yl}methanol]"
19,0.1 to 0.5 µM,"COc1ccc(-c2ccc3c(c2)CN(c2nc(CN(C)C)nc4c2CC(C)(C)CC4)CCO3)cc1OC(F)F [Compound 8, 1-{4-[7-{3-[(difluoromethyl)oxy]-4-(methyloxy)phenyl}-2,3-dihydro-1,4-benzoxazepin-4(5H)-yl]-6,6-dimethyl-5,6,7,8-tetrahydroquinazolin-2-yl}-N,N-dimethylmethanamine]"
20,≤ 0.1 µM,"Cc1nc2cc(-c3ccc4c(c3)CN(c3nc(NC5CNC5)nc(C)c3C(C)C)CCO4)ccc2[nH]1 [Compound 15, N-azetidin-3-yl-4-methyl-6-[7-(2-methyl-1H-benzimidazol-5-yl)-2,3-dihydro-1,4-benzoxazepin-4(5H)-yl]-5-(1-methylethyl)pyrimidin-2-amine]"
21,≤ 0.1 µM,"Cc1nc(N)nc(N2CCOc3ccc(-c4ccc5[nH]cnc5c4)cc3C2)c1C(C)C [Compound 40, 4-[7-(1H-benzimidazol-5-yl)-2,3-dihydro-1,4-benzoxazepin-4(5H)-yl]-6-methyl-5-(1-methylethyl)pyrimidin-2-amine]"
22,0.5 to 2.5 µM,"COCCc1c(C)nc(CN(C)C)nc1N1CCOc2ccc(-c3ccc4nc(C)[nH]c4c3)cc2C1 [Compound 1, N,N-dimethyl-1-{4-methyl-6-[7-(2-methyl-1H-benzimidazol-6-yl)-2,3-dihydro-1,4-benzoxazepin-4(5H)-yl]-5-[2-(methyloxy)ethyl]pyrimidin-2-yl}methanamine]"
23,0.1 to 0.5 µM,COc1ccc(-c2ccc3c(c2)CN(c2nc(CN(C)C)nc(C)c2C(C)C)CCO3)cc1NS(C)(=O)=O [Compound 10]
24,0.5 to 2.5 µM,"COc1ccc2c(N3CCOc4ccc(-c5ccc6[nH]c(C)nc6c5)cc4C3)nc(CN(C)C)nc2c1 [Compound 38, N,N-dimethyl-1-{4-[7-(2-methyl-1H-benzimidazol-5-yl)-2,3-dihydro-1,4-benzoxazepin-4(5H)-yl]-7-(methyloxy)quinazolin-2-yl}methanamine]"
25,≤ 0.1 µM,"CC(=O)NCc1nc2c(c(N3CCOc4ccc(-c5ccc6[nH]c(C)nc6c5)cc4C3)n1)CC(C)(C)CC2 [Compound 26, N-({6,6-dimethyl-4-[7-(2-methyl-1H-benzimidazol-5-yl)-2,3-dihydro-1,4-benzoxazepin-4(5H)-yl]-5,6,7,8-tetrahydroquinazolin-2-yl}methyl)acetamide]"
26,≤ 0.1 µM,"Cc1nc2cc(-c3ccc4c(c3)CN(c3cc(N)ncc3C#N)CCO4)ccc2[nH]1 [Compound 28, 6-amino-4-[7-(2-methyl-1H-benzimidazol-5-yl)-2,3-dihydro-1,4-benzoxazepin-4(5H)-yl]pyridine-3-carbonitrile]"
27,0.5 to 2.5 µM,"CCCc1c(C)nc(CN(C)C)nc1N1CCOc2ccc(-c3ccc4nc(C)[nH]c4c3)cc2C1 [Compound 32, N,N-dimethyl-1-{4-methyl-6-[7-(2-methyl-1H-benzimidazol-6-yl)-2,3-dihydro-1,4-benzoxazepin-4(5H)-yl]-5-propylpyrimidin-2-yl}methanamine]"
